Measurements reported in PMC6403271, “Characterization, mechanism of action and optimization of activity of a novel peptide-peptoid hybrid against bacterial pathogens involved in canine skin infections” (Scientific Reports, 2019).
pEC50: −log10 of the molar value. Where two headings read alike, the source gives them in different places. Square brackets hold non-standard residues; d marks the D form. Peptide text beside a SMILES is read from it. N(1-naphthylmethyl)Gly = O=C(O)CNCc1cccc2ccccc12; 1Nal = N[C@@H](Cc1cccc2ccccc12)C(=O)O; 2Nal = N[C@@H](Cc1ccc2ccccc2c1)C(=O)O; d1Nal = N[C@H](Cc1cccc2ccccc12)C(=O)O; d2Nal = N[C@H](Cc1ccc2ccccc2c1)C(=O)O; Nle = CCCC[C@H](N)C(=O)O; Nphe = O=C(O)CNCc1ccccc1; NBuGly = CCCCNCC(=O)O

Assays:
[1] = type: cell-based, human; settings: human
Method: (§1) Briefly, two-fold serial dilutions (2.35 to 150 μM) of compounds in phosphate buffer saline (PBS) were mixed with equal volume of 0.5% v/v suspension of fresh human red blood cells (RBC) in the same buffer. After 1 h incubation at 37 °C, plates were centrifuged and aliquots of the supernatants were transferred to clear 96-well plates. Absorbance at 414 nm was measured and normalized using a negative (PBS, 0%) and a positive (melittin, 100%) control. The EC10 and EC50 are concentrations at which 10% and 50% of RBC were lysed, respectively, as interpolated graphically by the y-axis intersection of the plotted data.

MSSA (ATCC 29213) = type: cell-based, Staphylococcus aureus
Method: (§2) Activity of B1 was tested on 50P. aeruginosa isolates and 57S. pseudintermedius isolates (including 7 MRSP) that had been isolated in the diagnostic laboratory Sund Vet Diagnostik (University of Copenhagen) from various infections in dogs between 2009 and 2011. Representative MRSP (C22963), MSSA, and P. aeruginosa (26314) were used for testing the first set of B1 analogues.
(§3) MIC determination was performed by broth microdilution according to the Clinical and Laboratory Standard Institute (CLSI, M31-A3, 2008)[62]. In brief, each bacterial strain was diluted to concentration of 5 × 10^5 CFU/mL in Mueller Hinton broth II (MHB II) media (Oxoid) and added to a two-fold serial dilution of peptides and peptide-peptoid hybrids concentrations ranging from 1 to 64 µg/ml in 96-well plates (Nunc Internationals, Rochester, NY). The MICs were determined as a lowest concentration showing no visible growth after incubation for 18 hours at 37 °C. Experiments were performed in triplicates on two different days.

P. aeruginosa (26314) = type: cell-based, Pseudomonas aeruginosa
Method: Activity of B1 was tested on […]. aeruginosa isolates and […]. pseudintermedius isolates (including 7 MRSP) that had been isolated in the diagnostic laboratory Sund Vet Diagnostik (University of Copenhagen) from various infections in dogs between 2009 and 2011. Representative […], and P. aeruginosa (26314) were used for testing the first set of B1 analogues. For antibacterial spectrum the following strains were used: Corynebacterium auriscanis, 31551, (54 C6, dog, ear, 2013); Enterococcus faecalis, 27404, (17 C7, dog, wound, 2011); Enterococcus faecium, 30951, (24 C1, dog, ear, 2013); Streptococcus canis, 26740-1, (14 H1, dog, ear, 2010); Staphylococcus aureus, 27266, (16 G9, dog, skin, 2010); Staphylococcus aureus, 27266, (16 G9, dog, skin, 2010); Staphylococcus pseudintermedius 22963, (3 B9, dog, 2007). Acinetobacter baumannii, 27065, (16 D1, dog, wound, 2010); E. coli, 30235, 23 A6, dog, wound, 2012; Klebsiella pneumoniae, 26233, (11 H5, dog, wound, 2010); Pasteurella canis, 31096, (24 C8, dog, skin, 2013); Proteus mirabilis, 25178, (9 A4, dog, ear, 2009); Pseudomonas aeruginosa 26314, 12 C5, dog, urine, 2010). MIC determination was performed by broth microdilution according to the Clinical and Laboratory Standard Institute (CLSI, […]-A3, 2008)[62]. In brief, each bacterial strain was diluted to concentration of 5 × 10^5 CFU/mL in Mueller Hinton broth II (MHB II) media (Oxoid) and added to a two-fold serial dilution of peptides and peptide-peptoid hybrids concentrations ranging from 1 to 64 μg/ml in 96-well plates (Nunc Internationals, Rochester, NY). The MICs were determined as a lowest concentration showing no visible growth after incubation for 18 hours at 37 °C. Experiments were performed in triplicates on two different days.

MRSP C22963 = type: cell-based, Staphylococcus pseudintermedius
Method: as §2, §3

human red blood cells = type: cell-based; settings: for pEC50: red cells of human, 1 h
Method: as §1

Row | Compound | hemolysis at 1 h, 150 µM [1] | Minimum Inhibitory Concentration MSSA (ATCC 29213) (MSSA (ATCC 29213); ATCC 29213, 18 h) | Minimum Inhibitory Concentration P. aeruginosa (26314) (P. aeruginosa (26314); 26314, 18 h) | Minimum Inhibitory Concentration MRSP C22963 (MRSP C22963; 18 h) | Haemolysis EC10 (human red blood cells) | pEC50 (human red blood cells) | Minimum Inhibitory Concentration P. aeruginosa (26314) (P. aeruginosa (26314); Table 1) | Haemolysis %H 150(µM) (human red blood cells; 150 µM) | Minimum Inhibitory Concentration MSSA (ATCC 29213) (MSSA (ATCC 29213); Table 1) | Minimum Inhibitory Concentration MRSP C22963 (MRSP C22963; Table 1)
1 | CC(C)C[C@H](NC(=O)[C@H](CCCCN)NC(=O)[C@H](Cc1ccc2ccccc2c1)NC(=O)[C@H](Cc1ccccc1)NC(=O)[C@@H](N)Cc1ccc2ccccc2c1)C(=O)N[C@@H](CCCCN)C(=O)N[C@@H](CCCCN)C(N)=O [Compound 11, (2-Nal)Ala-Phe -(2-Nal)Ala-Lys-Leu-Lys-Lys] (H-[2Nal]F[2Nal]KLKK-NH2; N-terminus assumed) | < 8% | 16 µg/mL | 64 µg/mL | 4 to 8 µg/mL | – | – | – | – | – | –
2 | CC(C)C[C@@H](NC(=O)[C@H](CCCCN)NC(=O)[C@H](CCCCN)NC(=O)[C@@H](N)CCCCN)C(=O)N[C@H](Cc1cccc2ccccc12)C(=O)N[C@H](Cc1ccc(O)cc1)C(=O)N[C@H](Cc1cccc2ccccc12)C(N)=O [Compound 25, Lys-Lys-Lys-leu-(1-Nal)ala-tyr-(1-Nal)ala] (H-KKK[dL][d1Nal][dY][d1Nal]-NH2; N-terminus assumed) | 53% | – | – | 2 to 4 µg/mL | 38 µM | 3.86 | 8 µg/mL | – | – | –
3 | CC(C)C[C@H](NC(=O)[C@H](Cc1cccc2ccccc12)NC(=O)[C@H](Cc1ccccc1)NC(=O)[C@@H](N)Cc1cccc2ccccc12)C(=O)N[C@@H](CCCCN)C(=O)N[C@@H](CCCCN)C(=O)N[C@@H](CCCCN)C(N)=O [Compound 12, (1-Nal)Ala-Phe-(1-Nal)Ala-Leu-Lys-Lys-Lys] (H-[1Nal]F[1Nal]LKKK-NH2; N-terminus assumed) | < 8% | 32 µg/mL | >64 µg/mL | 16 µg/mL | – | – | – | – | – | –
4 | CCCCN(CC(=O)N(CC(=O)N(CC(=O)N(CC(N)=O)Cc1cccc2ccccc12)Cc1ccccc1)Cc1cccc2ccccc12)C(=O)[C@H](CCCCN)NC(=O)[C@H](CCCCN)NC(=O)[C@@H](N)CCCCN [Compound 3, Lys-Lys-Lys-(NBu)Gly-(N1-Nal)Gly-(NPhe)Gly-(N1-Nal)Gly] (H-KKK[NBuGly][N(1-naphthylmethyl)Gly][Nphe][N(1-naphthylmethyl)Gly]-NH2; N-terminus assumed) | < 8% | 16 µg/mL | 32 µg/mL | 4 µg/mL | – | – | – | – | – | –
5 | Lys-Lys-Lys-Leu-(2-Nal)Ala-Tyr-(2-Nal)Ala [Compound 22] | – | – | – | – | 117 µM | – | >64 µg/mL | 14% | >64 µg/mL | 16 µg/mL
6 | CCCC[C@H](NC(=O)[C@H](CCCCN)NC(=O)[C@H](CCCCN)NC(=O)[C@@H](N)CCCCN)C(=O)N[C@@H](Cc1ccc2ccccc2c1)C(=O)N[C@@H](Cc1ccc(O)cc1)C(=O)N[C@@H](Cc1ccc2ccccc2c1)C(N)=O [Compound 27, Lys-Lys-Lys-Nle-(2-Nal)Ala-Tyr-(2-Nal)Ala] (H-KKK[Nle][2Nal]Y[2Nal]-NH2; N-terminus assumed) | 54% | – | 64 µg/mL | 2 to 4 µg/mL | 3 µM | 4.25 | – | – | – | –
7 | CC(C)C[C@@H](NC(=O)[C@@H](Cc1cccc2ccccc12)NC(=O)[C@@H](Cc1ccccc1)NC(=O)[C@H](N)Cc1cccc2ccccc12)C(=O)N[C@@H](CCCCN)C(=O)N[C@@H](CCCCN)C(=O)N[C@@H](CCCCN)C(N)=O [Compound 21, (1-Nal)ala-phe-(1-Nal)ala-leu-Lys-Lys-Lys] (H-[d1Nal][dF][d1Nal][dL]KKK-NH2; N-terminus assumed) | < 8% | 32 µg/mL | 32 µg/mL | 16 µg/mL | – | – | – | – | – | –
8 | CC(C)C[C@@H](NC(=O)[C@H](CCCCN)NC(=O)[C@@H](Cc1cccc2ccccc12)NC(=O)[C@@H](Cc1ccccc1)NC(=O)[C@H](N)Cc1cccc2ccccc12)C(=O)N[C@@H](CCCCN)C(=O)N[C@@H](CCCCN)C(N)=O [Compound 20, (1-Nal)ala-phe-(1-Nal)ala-Lys-leu-Lys-Lys] (H-[d1Nal][dF][d1Nal]K[dL]KK-NH2; N-terminus assumed) | < 8% | 32 to 64 µg/mL | >64 µg/mL | 16 µg/mL | – | – | – | – | – | –
9 | CC(C)C[C@@H](NC(=O)[C@@H](Cc1ccc2ccccc2c1)NC(=O)[C@@H](Cc1ccccc1)NC(=O)[C@H](N)Cc1ccc2ccccc2c1)C(=O)N[C@@H](CCCCN)C(=O)N[C@@H](CCCCN)C(=O)N[C@@H](CCCCN)C(N)=O [Compound 19, (2-Nal)ala-phe-(2-Nal)ala-leu-Lys-Lys-Lys] (H-[d2Nal][dF][d2Nal][dL]KKK-NH2; N-terminus assumed) | < 8% | 32 µg/mL | >64 µg/mL | 16 µg/mL | – | – | – | – | – | –
10 | CC(C)C[C@@H](NC(=O)[C@H](CCCCN)NC(=O)[C@H](CCCCN)NC(=O)[C@@H](N)CCCCN)C(=O)N[C@H](Cc1ccc2ccccc2c1)C(=O)N[C@H](Cc1ccc(O)cc1)C(=O)N[C@H](Cc1ccc2ccccc2c1)C(N)=O [Compound 28, Lys-Lys-Lys-leu-(2-Nal)ala-tyr-(2-Nal)ala] (H-KKK[dL][d2Nal][dY][d2Nal]-NH2; N-terminus assumed) | 64% | – | 32 µg/mL | 2 to 4 µg/mL | 6 µM | 4.30 | – | – | – | –
11 | CC(C)C[C@H](NC(=O)[C@H](CCCCN)NC(=O)[C@H](Cc1cccc2ccccc12)NC(=O)[C@H](Cc1ccccc1)NC(=O)[C@@H](N)Cc1cccc2ccccc12)C(=O)N[C@@H](CCCCN)C(=O)N[C@@H](CCCCN)C(N)=O [Compound 10, (1-Nal)Ala-Phe-(1-Nal)Ala-Lys-Leu-Lys-Lys] (H-[1Nal]F[1Nal]KLKK-NH2; N-terminus assumed) | < 8% | 16 to 32 µg/mL | 64 µg/mL | 8 to 16 µg/mL | – | – | – | – | – | –
12 | CCCCN(CC(=O)N[C@@H](CCCCN)C(=O)N(CC(=O)N(CC(=O)N(CC(N)=O)Cc1cccc2ccccc12)Cc1ccccc1)Cc1cccc2ccccc12)C(=O)[C@H](CCCCN)NC(=O)[C@@H](N)CCCCN [Compound 2, Lys-Lys-(NBu)Gly-Lys-(N1-Nal)Gly-(NPhe)Gly-(N1-Nal)Gly] (H-KK[NBuGly]K[N(1-naphthylmethyl)Gly][Nphe][N(1-naphthylmethyl)Gly]-NH2; N-terminus assumed) | < 8% | 8 to 16 µg/mL | 32 µg/mL | 4 µg/mL | – | – | – | – | – | –
13 | CCCCN(CC(=O)N[C@@H](CCCCN)C(=O)N[C@@H](CCCCN)C(N)=O)C(=O)[C@H](CCCCN)NC(=O)CN(Cc1cccc2ccccc12)C(=O)CN(Cc1ccccc1)C(=O)CNCc1cccc2ccccc12 [Compound 5, (N1-Nal)Gly-(NPhe)Gly-(N1-Nal)Gly-Lys-(NBu)Gly-Lys-Lys] (H-[N(1-naphthylmethyl)Gly][Nphe][N(1-naphthylmethyl)Gly]K[NBuGly]KK-NH2; N-terminus assumed) | < 8% | 16 µg/mL | 32 µg/mL | 8 µg/mL | – | – | – | – | – | –
